# Measurements: ChEMBL document CHEMBL4842340, “Development of Cagrilintide, a Long-Acting Amylin Analogue” (J Med Chem, 2021)
# *1 amine or outer side, *2 acyl side, *3 side chain or, on linkers, in order; H or OH if unused. Where a SMILES comes first, the peptide text is derived from it. Bridges are numbered along the chain shown (N, C = ends). [ ]: non-standard residue; d: D form. The star is where a group is joined. X1 = O=C(NC(=O)[C@H](Cc1cnc[nH]1)N[*:1])[C@@H](Cc1cnc[nH]1)C(=O)[*:2]; C20 diacid = O=C(O)CCCCCCCCCCCCCCCCCCC(=O)*; γGlu = O=C(O)[C@H](CCC(=O)[*:2])N[*:1]; hArg = N=C(N)NCCCC[C@H](N)C(=O)O; AEEA = NCCOCCOCC(=O)O
# Key:
# [1] = Solubility of the compound in bis-tris propane at pH 7 by UPLC analysis; assay type: physicochemical; conditions: bis-tris propane buffer
# [2] = Agonist activity at human AMY3R (CT+RAMP3) expressed in Hollex1 cells incubated for 3 hrs by luminescence assay; assay type: cell-based; conditions: Hollex1, 3 h
# [3] = molecular target: Insulin (Homo sapiens) (UniProt P01308); test: Effect on insulin (unknown origin) amyloid fibril formation assessed as lag time in glycyl-glycine buffer at pH 4 measured after 45 hrs by thioflavin-T fluorescence assay
# [4] = Displacement of [125I]-amylin from human AMY3R (CTR+RAMP3) expressed in BHK-13 cells measured after 120 mins by scintillation proximity assay; assay type: cell-based
# [5] = Solubility of the compound in lactate at pH 5 by UPLC analysis; assay type: physicochemical; conditions: lactate buffer
# [6] = Solubility of the compound in lactate at pH 4 by UPLC analysis; assay type: physicochemical; conditions: lactate buffer
# [7] = test system: Rattus norvegicus; test: Reduction in food intake in Sprague-Dawley rat at 30 nmol/kg, sc administered as single dose measured after 24 to 48 hrs relative to control; assay type: functional; design: scale not given: the % may be the effect or the level left; conditions: time 24-48 hrs
# [8] = Solubility of the compound in bis-tris propane at pH 6.5 by UPLC analysis; assay type: physicochemical; conditions: bis-tris propane buffer
# [9] = Displacement of [125I]-amylin from rat AMY3R (CTR+RAMP3) expressed in BHK-13 cells measured after 120 mins by scintillation proximity assay; assay type: cell-based
# [10] = Solubility of the compound in bis-tris propane at pH 6 by UPLC analysis; assay type: physicochemical; conditions: bis-tris propane buffer
# [11] = test system: Rattus norvegicus; test: Reduction in food intake in Sprague-Dawley rat at 30 nmol/kg, sc administered as single dose measured upto 24 hrs relative to control; assay type: functional; design: scale not given: the % may be the effect or the level left; conditions: time hrs <=24
# [12] = Agonist activity at rat AMY3R (CT+RAMP3) expressed in tk-ts13 cells assessed as increase in intracellular cAMP level incuabted for 25 mins by CRE luciferase reporter gene assay; assay type: cell-based; conditions: tk-ts13, 25 min
# [13] = organism: Rattus norvegicus; test: Ratio of IC50 for displacement of [125I]-calcitonin from rat calcitonin receptor expressed in tk-ts 13 cells to IC50 for displacement of [125I]-amylin from rat AMY3R (CTR+RAMP3) expressed in BHK-13 cells; assay type: cell-based
# [14] = Solubility of the compound in bis-tris propane at pH 8 by UPLC analysis; assay type: physicochemical; conditions: bis-tris propane buffer
# [15] = Agonist activity at human calcitonin receptor expressed in BHK570 cells assessed as increase in intracellular cAMP concentration incubated for 3 hrs in absence of albumin by CRE luciferase reporter gene assay; assay type: cell-based; conditions: BHK570, 3 h
# [16] = Solubility of the compound in bis-tris propane at pH 7.5 by UPLC analysis; assay type: physicochemical; conditions: bis-tris propane buffer
# [17] = Displacement of [125I]-calcitonin from rat calcitonin receptor expressed in tk-ts 13 cells measured after 120 mins by scintillation proximity assay; assay type: cell-based; conditions: tk-ts13
# [18] = organism: Homo sapiens; test: Ratio of EC50 for human calcitonin receptor expressed in BHK570 cells to EC50 for human AMY3R (CT+RAMP3) expressed in Hollex1 cells; assay type: cell-based
# [19] = organism: Homo sapiens; test: Ratio of IC50 for displacement of [125I]-calcitonin from human calcitonin receptor expressed in tk-ts 13 cells to IC50 for displacement of [125I]-amylin from human AMY3R (CTR+RAMP3) expressed in BHK-13 cells; assay type: cell-based
# [20] = organism: Rattus norvegicus; test: Ratio of EC50 for rat calcitonin receptor expressed in BHK-13 cells to EC50 for rat AMY3R (CT+RAMP3) expressed in tk-ts13 cells; assay type: cell-based
# [21] = Solubility of the compound in lactate at pH 3 by UPLC analysis; assay type: physicochemical; conditions: lactate buffer
# [22] = Agonist activity at rat calcitonin receptor expressed in BHK-13 cells assessed as increase in intracellular cAMP concentration incubated for 25 mins by CRE luciferase reporter gene assay; assay type: cell-based; conditions: BHK-13, 25 min
# [23] = molecular target: Insulin (Homo sapiens) (UniProt P01308); test: Effect on insulin (unknown origin) amyloid fibril formation assessed as peptide recovery in glycyl-glycine buffer at pH 4 measured after 45 hrs by thioflavin-T fluorescence assay relative to control; design: concentration or dose not given beside the values
# [24] = Displacement of [125I]-calcitonin from human calcitonin receptor expressed in tk-ts 13 cells measured after 120 mins by scintillation proximity assay; assay type: cell-based; conditions: tk-ts13
# [25] = test system: Rattus norvegicus; test: Reduction in food intake in Sprague-Dawley rat at 3 nmol/kg, sc administered as single dose measured upto 24 hrs relative to control; assay type: functional; design: scale not given: the % may be the effect or the level left; conditions: time hrs <=24
# [26] = test system: Rattus norvegicus; test: Reduction in food intake in Sprague-Dawley rat at 3 nmol/kg, sc administered as single dose measured after 24 to 48 hrs relative to control; assay type: functional; design: scale not given: the % may be the effect or the level left; conditions: time 24-48 hrs
# Sequence of Insulin (Homo sapiens) (P01308 whole entry): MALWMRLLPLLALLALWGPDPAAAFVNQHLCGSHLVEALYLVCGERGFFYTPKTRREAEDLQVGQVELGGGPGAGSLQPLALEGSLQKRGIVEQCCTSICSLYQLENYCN
Structure (SMILES),solubility [1] [µM],EC50 [2] [nM],TIME [3] [h],IC50 [4] [nM],solubility [5] [µM],solubility [6] [µM],Activity [7] [%],solubility [8] [µM],IC50 [9] [nM],solubility [10] [µM],Activity [11] [%],EC50 [12] [nM],solubility [14] [µM],EC50 [15] [nM],solubility [16] [µM],Ratio EC50 [18],Ratio EC50 [20],solubility [21] [µM],EC50 [22] [nM],Activity [23] [%],further results
CC[C@H](C)[C@H](NC(=O)[C@@H]1CCCN1C(=O)CNC(=O)[C@H](Cc1ccccc1)NC(=O)[C@H](CC(N)=O)NC(=O)[C@H](CC(N)=O)NC(=O)[C@H](CO)NC(=O)[C@H](CO)NC(=O)[C@H](Cc1cnc[nH]1)NC(=O)[C@H](Cc1cnc[nH]1)NC(=O)[C@H](CC(C)C)NC(=O)[C@H](Cc1ccccc1)NC(=O)[C@H](CC(N)=O)NC(=O)[C@H](C)NC(=O)[C@H](CC(C)C)NC(=O)[C@H](CCCNC(=N)N)NC(=O)[C@H](CCC(N)=O)NC(=O)[C@@H](NC(=O)[C@H](C)NC(=O)[C@@H]1CSSC[C@H](NC(=O)[C@H](CCCNC(=N)N)NC(=O)[C@H](CCCNC(=N)N)NC(=O)[C@H](CCCNC(=N)N)NC(=O)COCCOCCNC(=O)COCCOCCNC(=O)CC[C@H](NC(=O)CCCCCCCCCCCCCCCCCCC(=O)O)C(=O)O)C(=O)N[C@@H](CC(N)=O)C(=O)N[C@@H]([C@@H](C)O)C(=O)N[C@@H](C)C(=O)N[C@@H]([C@@H](C)O)C(=O)N1)[C@@H](C)O)C(=O)N[C@@H](CC(C)C)C(=O)N1CCC[C@H]1C(=O)N1CCC[C@H]1C(=O)N[C@H](C(=O)N[C@@H](CC(N)=O)C(=O)N[C@H](C(=O)NCC(=O)N[C@@H](CO)C(=O)N[C@@H](CCCNC(=N)N)C(=O)N[C@H](C(=O)N[C@@H](Cc1ccc(O)cc1)C(N)=O)[C@@H](C)O)C(C)C)[C@@H](C)O ({C20 diacid-γGlu-AEEA-AEEA}-RRRCNTATCATQRLANFLHHSSNNFGPILPPTNVGSRTY-NH2; disulfide 4-9),200,0.076,45,0.213,200,200,0,200,0.648,200,32,0.13,200,1.24,200,16,93,200,12.1,93,Ratio IC50 [13]: 138; IC50 [17]: 89.2 nM; Ratio IC50 [19]: 43; IC50 [24]: 9.18 nM
CC[C@H](C)[C@H](NC(=O)[C@@H]1CCCN1C(=O)CNC(=O)[C@H](Cc1ccccc1)NC(=O)[C@H](CC(N)=O)NC(=O)[C@H](CC(N)=O)NC(=O)[C@H](CO)NC(=O)[C@H](CO)NC(=O)[C@H](CCC(=O)O)NC(=O)[C@H](Cc1cnc[nH]1)NC(=O)[C@H](CC(C)C)NC(=O)[C@H](Cc1ccccc1)NC(=O)[C@H](CCC(=O)O)NC(=O)[C@H](C)NC(=O)[C@H](CC(C)C)NC(=O)[C@H](CCCNC(=N)N)NC(=O)[C@H](CCC(N)=O)NC(=O)[C@@H](NC(=O)[C@H](C)NC(=O)[C@@H]1CSSC[C@H](NC(=O)[C@H](Cc2cnc[nH]2)NC(=O)CC[C@H](NC(=O)CCCCCCCCCCCCCCCCCCC(=O)O)C(=O)O)C(=O)N[C@@H](CC(N)=O)C(=O)N[C@@H]([C@@H](C)O)C(=O)N[C@@H](C)C(=O)N[C@@H]([C@@H](C)O)C(=O)N1)[C@@H](C)O)C(=O)N[C@@H](CC(C)C)C(=O)N1CCC[C@H]1C(=O)N1CCC[C@H]1C(=O)N[C@H](C(=O)N[C@@H](CC(N)=O)C(=O)N[C@H](C(=O)NCC(=O)N[C@@H](CO)C(=O)N[C@@H](CC(N)=O)C(=O)N[C@H](C(=O)N[C@@H](Cc1ccc(O)cc1)C(N)=O)[C@@H](C)O)C(C)C)[C@@H](C)O ({C20 diacid-γGlu}-HCNTATCATQRLAEFLHESSNNFGPILPPTNVGSNTY-NH2; disulfide 2-7),15,0.083,11,0.137,200,200,92,16,0.034,52,93,0.063,138,0.128,58,2,6,200,0.355,0,Activity [25]: 50%; Activity [26]: 45%; Ratio IC50 [13]: 24; IC50 [17]: 0.812 nM; Ratio IC50 [19]: 13; IC50 [24]: 1.75 nM
CC[C@H](C)[C@H](NC(=O)[C@@H]1CCCN1C(=O)CNC(=O)[C@H](Cc1ccccc1)NC(=O)[C@H](CC(N)=O)NC(=O)[C@H](CC(N)=O)NC(=O)[C@H](CO)NC(=O)[C@H](CO)NC(=O)[C@H](Cc1cnc[nH]1)NC(=O)[C@H](Cc1cnc[nH]1)NC(=O)[C@H](CC(C)C)NC(=O)[C@H](Cc1ccccc1)NC(=O)[C@H](CC(N)=O)NC(=O)[C@H](C)NC(=O)[C@H](CC(C)C)NC(=O)[C@H](CCCCNC(=N)N)NC(=O)[C@H](CCC(N)=O)NC(=O)[C@@H](NC(=O)[C@H](C)NC(=O)[C@@H]1CSSC[C@H](NC(=O)[C@H](Cc2cnc[nH]2)NC(=O)[C@H](Cc2cnc[nH]2)C(=O)NC(=O)[C@H](Cc2cnc[nH]2)NC(=O)CC[C@H](NC(=O)CCCCCCCCCCCCCCCCCCC(=O)O)C(=O)O)C(=O)N[C@@H](CC(N)=O)C(=O)N[C@@H]([C@@H](C)O)C(=O)N[C@@H](C)C(=O)N[C@@H]([C@@H](C)O)C(=O)N1)[C@@H](C)O)C(=O)N[C@@H](CC(C)C)C(=O)N1CCC[C@H]1C(=O)N1CCC[C@H]1C(=O)N[C@H](C(=O)N[C@@H](CC(N)=O)C(=O)N[C@H](C(=O)NCC(=O)N[C@@H](CO)C(=O)N[C@@H](CC(N)=O)C(=O)N[C@H](C(=O)N[C@@H](Cc1ccc(O)cc1)C(N)=O)[C@@H](C)O)C(C)C)[C@@H](C)O ({C20 diacid-γGlu}-[X1]HCNTATCATQ[hArg]LANFLHHSSNNFGPILPPTNVGSNTY-NH2; disulfide 3-8),2,0.102,4,1.11,200,200,2,50,,200,24,0.321,25,0.391,7,4,7,200,4.48,21,
